Experimental data as given in PubChem BioAssay AID1918930 (Molecular Pharmacology Branch, DTP, NCI, 2023).

System: 233499-124-R-J3-PDC complex spheroid viability, % test/control
Assay: Anticancer human tumor 233499-124-R-J3-PDC patient-derived colon adenocarcinoma cell line growth inhibition
Conditions: for IC50: curve of first compound; for viability, T/C: stronger effect = lower value
Summary of the method: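 Complex spheroids of tumor cells with HUVEC and human MSCs, exposed to iadademstat combined with other agents. Each agent tested in half-log steps from near clinical Cmax (else 10 microM top), DMSO ≤0.25%.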

[1] = second compound 0.1 µM, first compound 0.0316 µM
[2] = second compound 0.1 µM, first compound 0.1 µM
[3] = second compound 0.1 µM, first compound 0.316 µM
[4] = second compound 0.1 µM, first compound 1 µM
[5] = second compound 0.316 µM, first compound 0.0316 µM
[6] = second compound 0.316 µM, first compound 0.1 µM
[7] = second compound 0.316 µM, first compound 0.316 µM
[8] = second compound 0.316 µM, first compound 1 µM
[9] = second compound 1 µM, first compound 0.0316 µM
[10] = second compound 1 µM, first compound 0.1 µM
[11] = second compound 1 µM, first compound 0.316 µM
[12] = second compound 1 µM, first compound 1 µM
[13] = second compound 3.16 µM, first compound 0.0316 µM
[14] = second compound 3.16 µM, first compound 0.1 µM
[15] = second compound 3.16 µM, first compound 0.316 µM
[16] = second compound 3.16 µM, first compound 1 µM
[17] = second compound 10 µM, first compound 0.0316 µM
[18] = second compound 10 µM, first compound 0.1 µM
[19] = second compound 10 µM, first compound 0.316 µM
[20] = second compound 10 µM, first compound 1 µM
[21] = second compound 0.1 µM, first compound 0.00316 µM
[22] = second compound 0.1 µM, first compound 0.01 µM
[23] = second compound 0.316 µM, first compound 0.00316 µM
[24] = second compound 0.316 µM, first compound 0.01 µM
[25] = second compound 1 µM, first compound 0.00316 µM
[26] = second compound 1 µM, first compound 0.01 µM
[27] = second compound 3.16 µM, first compound 0.00316 µM
[28] = second compound 3.16 µM, first compound 0.01 µM
[29] = second compound 10 µM, first compound 0.00316 µM
[30] = second compound 10 µM, first compound 0.01 µM
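Further: spheroids exposed to agents for one week before readout.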

SMILES: COc1ccc([C@@H](O)c2cc(-c3ncnc4cc(N5CCOCC5)ccc34)c(F)cc2Cl)nn1 + NC1CCC(NC2CC2c2ccccc2)CC1
- IC50 (second compound 0.1 µM): 4.14 µM
- IC50 (second compound 0.316 µM): 3.72 µM
- IC50 (second compound 1 µM): 4.02 µM
- IC50 (second compound 3.16 µM): 4.02 µM
- IC50 (second compound 10 µM): 2.79 µM
- viability, T/C [1]: 102%
- viability, T/C [2]: 82.3%
- viability, T/C [3]: 86.9%
- viability, T/C [4]: 81.8%
- viability, T/C (second compound 0.1 µM, first compound 3.16 µM): 62.4%
- viability, T/C (second compound 0.1 µM, first compound 10 µM): 12.6%
- viability, T/C [5]: 102%
- viability, T/C [6]: 96.8%
- viability, T/C [7]: 86.7%
- viability, T/C [8]: 79.8%
- viability, T/C (second compound 0.316 µM, first compound 3.16 µM): 58.4%
- viability, T/C (second compound 0.316 µM, first compound 10 µM): 10.8%
- viability, T/C [9]: 94.4%
- viability, T/C [10]: 79.2%
- viability, T/C [11]: 64.7%
- viability, T/C [12]: 74.1%
- viability, T/C (second compound 1 µM, first compound 3.16 µM): 64%
- viability, T/C (second compound 1 µM, first compound 10 µM): 12.8%
- viability, T/C [13]: 85.4%
- viability, T/C [14]: 83.8%
- viability, T/C [15]: 75.2%
- viability, T/C [16]: 67.5%
- viability, T/C (second compound 3.16 µM, first compound 3.16 µM): 65.3%
- viability, T/C (second compound 3.16 µM, first compound 10 µM): 9.45%
- viability, T/C [17]: 92.6%
- viability, T/C [18]: 95.1%
- viability, T/C [19]: 63.1%
- viability, T/C [20]: 57.4%
- viability, T/C (second compound 10 µM, first compound 3.16 µM): 65.9%
- viability, T/C (second compound 10 µM, first compound 10 µM): 11.2%

SMILES: CC1COCCN1c1cc(-c2ccnn2C)c2ccnc(-c3ccn[nH]3)c2n1 (stereo not given) + NC1CCC(NC2CC2c2ccccc2)CC1
- IC50 (second compound 0.1 µM): 0.0285 µM
- IC50 (second compound 0.316 µM): 0.0577 µM
- IC50 (second compound 1 µM): 0.019 µM
- IC50 (second compound 3.16 µM): 0.0227 µM
- IC50 (second compound 10 µM): 0.0175 µM
- viability, T/C [21]: 86.8%
- viability, T/C [22]: 91.9%
- viability, T/C [1]: 46.1%
- viability, T/C [2]: 45.4%
- viability, T/C [3]: 25.4%
- viability, T/C [4]: 30.7%
- viability, T/C [23]: 101%
- viability, T/C [24]: 79.2%
- viability, T/C [5]: 63.8%
- viability, T/C [6]: 39.1%
- viability, T/C [7]: 30.1%
- viability, T/C [8]: 33.6%
- viability, T/C [25]: 87.3%
- viability, T/C [26]: 71.1%
- viability, T/C [9]: 32.8%
- viability, T/C [10]: 33.9%
- viability, T/C [11]: 21.9%
- viability, T/C [12]: 28.5%
- viability, T/C [27]: 81.1%
- viability, T/C [28]: 71.2%
- viability, T/C [13]: 39.9%
- viability, T/C [14]: 30%
- viability, T/C [15]: 18.1%
- viability, T/C [16]: 22.2%
- viability, T/C [29]: 79.5%
- viability, T/C [30]: 63.5%
- viability, T/C [17]: 35%
- viability, T/C [18]: 27.3%
- viability, T/C [19]: 17.8%
- viability, T/C [20]: 23.1%

SMILES: CC[C@@]1(O)C(=O)OCc2c1cc1n(c2=O)Cc2cc3c(CN(C)C)c(O)ccc3nc2-1 + NC1CC1c1ccc(-c2cccc(O)c2)cc1
- IC50 (second compound 0.1 µM): > 0.1 µM
- IC50 (second compound 0.316 µM): > 0.1 µM
- IC50 (second compound 1 µM): > 0.1 µM
- IC50 (second compound 3.16 µM): > 0.1 µM
- IC50 (second compound 10 µM): > 0.1 µM
- viability, T/C (second compound 0.1 µM, first compound 0.000316 µM): 109%
- viability, T/C (second compound 0.1 µM, first compound 0.001 µM): 99%
- viability, T/C [21]: 81.8%
- viability, T/C [22]: 52.1%
- viability, T/C [1]: 73.5%
- viability, T/C [2]: 115%
- viability, T/C (second compound 0.316 µM, first compound 0.000316 µM): 96.6%
- viability, T/C (second compound 0.316 µM, first compound 0.001 µM): 90%
- viability, T/C [23]: 72.3%
- viability, T/C [24]: 71.4%
- viability, T/C [5]: 79.5%
- viability, T/C [6]: 107%
- viability, T/C (second compound 1 µM, first compound 0.000316 µM): 86.7%
- viability, T/C (second compound 1 µM, first compound 0.001 µM): 94%
- viability, T/C [25]: 62.1%
- viability, T/C [26]: 67.9%
- viability, T/C [9]: 57.3%
- viability, T/C [10]: 104%
- viability, T/C (second compound 3.16 µM, first compound 0.000316 µM): 89.3%
- viability, T/C (second compound 3.16 µM, first compound 0.001 µM): 96.3%
- viability, T/C [27]: 63.6%
- viability, T/C [28]: 68.3%
- viability, T/C [13]: 70%
- viability, T/C [14]: 94.1%
- viability, T/C (second compound 10 µM, first compound 0.000316 µM): 77.7%
- viability, T/C (second compound 10 µM, first compound 0.001 µM): 67.9%
- viability, T/C [29]: 53.8%
- viability, T/C [30]: 53.6%
- viability, T/C [17]: 58.7%
- viability, T/C [18]: 93.5%
